In patent US12115158B2, “Survivin-targeting anti-tumor agents and uses thereof” (Indiana University Research and Technology Corporation, priority 2020, dated 2024):
Entries after “also recorded” stand apart in the source; their conditions may differ. Read-outs that look alike come from different tables or passages of the source.

Tests used:
PC-3 = conditions: MTT assay; data from the previous study [12]; cited from earlier work
C4-2 cells [1] = assay: Methylene blue survival assay; format: cell-based; conditions: Homo sapiens, 72-hr treatment
Protocol: (§1) Methylene blue survival assay. Prostate cancer cells were seeded 2000-3500 per well (cell line dependent) and treated with LQZ-7-3 for 72 hours. After 72 hours, media was then removed and cells were fixed with methanol for 30 minutes and subsequently stained with 100 μL of 1% methylene blue (diluted in 10 mM borate buffer) for 1 hour. The cells were then washed 3× with 10 mM borate buffer and then allowed to air dry for 30 minutes. 100 μL of 100% ethanol:0.1 M HCl (1:1) was added to each well to dissolve the methylene blue stain and absorbance was measured via spectrometry at […]. After normalization to DMSO controls, the percent viabilities were graphed and IC50 concentrations were determined using Prism.
(§2) LQZ-7I has enhanced cytotoxicity compared to the parent compound LQZ-7. These five newly synthesized LQZ-7 analogs were first tested for their cytotoxicity against prostate cancer cell lines C4-2 and PC-3 in comparison with their parent compound LQZ-7 using methylene blue assay. […] The other compounds performed worse with higher IC50 compared with LQZ-7.

PC-3 cells [2] = assay: Methylene blue survival assay; format: cell-based; conditions: Homo sapiens, 72-hr treatment
Protocol: as §1, §2

survivin dimerization = survivin dimerization (Homo sapiens, UniProt O15392); assay: Survivin mammalian two hybrid assay (SEAP reporter, Du145 cells); format: cell-based; conditions: 24 hours treatment
Chain of survivin dimerization (O15392 whole entry): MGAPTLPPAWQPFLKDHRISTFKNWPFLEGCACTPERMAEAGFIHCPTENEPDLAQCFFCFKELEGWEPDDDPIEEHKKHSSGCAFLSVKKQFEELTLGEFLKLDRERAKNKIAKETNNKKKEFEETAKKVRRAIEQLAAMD
Protocol: (§8) Survivin mammalian two hybrid assay. The mammalian two hybrid assay was performed utilizing the ClonTech Matchmaker Mammalian Two Hybrid Assay kit [13]. Briefly, the coding region (˜400 bp) of survivin was cloned in to two different plasmids, the pM plasmid containing the GAL4-DNA Binding Domain and the pVP16 plasmid containing an activation domain. […] These two plasmids (0.45 ug/well) along with the pGSEAP reporter plasmid (0.09 ug/well) and firefly luciferase plasmid (30 ng/well) were co-transfected in to 1×10^5 Du145 cells per well in a 12 well plate. Each condition was tested in triplicate. […] SEAP was detected utilizing the Takara ClonTech SEAP Great Escape chemiluminescence assay kit 2.0 and cells were lysed and luciferase was measured to control for transfection efficiency.
Dimerization of survivin activates the expression of Secreted Embryonic Alkaline Phosphatase (SEAP) reporter gene, which can be monitored.

CIAP1 = CIAP1 (Homo sapiens, UniProt Q13490); assay: IAP family member degradation assay; format: cell-based; conditions: C4-2 and PC-3 cells, Western blot
Chain of CIAP1 (Q13490 whole entry): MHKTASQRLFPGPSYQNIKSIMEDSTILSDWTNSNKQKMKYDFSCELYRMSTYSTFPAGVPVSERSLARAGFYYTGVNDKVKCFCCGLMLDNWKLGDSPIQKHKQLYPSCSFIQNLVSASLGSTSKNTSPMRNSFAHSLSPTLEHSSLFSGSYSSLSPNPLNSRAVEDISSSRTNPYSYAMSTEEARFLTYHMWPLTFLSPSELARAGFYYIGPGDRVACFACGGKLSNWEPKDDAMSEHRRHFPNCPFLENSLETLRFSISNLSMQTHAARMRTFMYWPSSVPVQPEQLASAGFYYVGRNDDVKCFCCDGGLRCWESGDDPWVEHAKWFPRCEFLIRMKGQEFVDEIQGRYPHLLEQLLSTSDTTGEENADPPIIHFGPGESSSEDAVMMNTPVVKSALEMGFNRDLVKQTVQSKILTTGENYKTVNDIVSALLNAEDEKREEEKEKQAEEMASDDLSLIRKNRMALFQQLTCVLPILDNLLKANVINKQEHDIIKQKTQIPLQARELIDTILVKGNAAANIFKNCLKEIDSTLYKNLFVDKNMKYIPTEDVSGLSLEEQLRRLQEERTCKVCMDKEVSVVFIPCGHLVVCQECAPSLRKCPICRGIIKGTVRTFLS
Protocol: (§3) Survivin mammalian two hybrid assay. […] Each condition was tested in triplicate. […] IAP family member degradation assay.
(§4) Selectivity of 7I. […] To ensure 7I is selective to survivin, we tested its effect on other members of the IAP family by taking advantage of its induction of target loss. For this purpose, we performed Western blot analysis to determine the expression level of other IAPs including XIAP, CIAP1, and CIAP2 in addition to survivin following 7I treatment of C4-2 and PC-3 cells. […] However, it had no effect on the expression of XIAP, CIAP1, and CIAP2. Thus, 7I may be selective to its intended target survivin. 7I induces survivin degradation in a proteasome-dependent manner. […] Because 7I inhibited survivin dimerization as shown above, we hypothesized that 7I will also induce survivin degradation. To test this hypothesis, we examined survivin expression level in C4-2 and PC-3 cells following 7I treatments. […] We next performed a cycloheximide-chase experiment following 7I treatment to determine the half-life of survivin. […] Thus, 7I induces survivin degradation in both cell lines.

CIAP2 = CIAP2 (Homo sapiens, UniProt Q13489); assay: IAP family member degradation assay; format: cell-based; conditions: C4-2 and PC-3 cells, Western blot
Chain of CIAP2 (Q13489 whole entry): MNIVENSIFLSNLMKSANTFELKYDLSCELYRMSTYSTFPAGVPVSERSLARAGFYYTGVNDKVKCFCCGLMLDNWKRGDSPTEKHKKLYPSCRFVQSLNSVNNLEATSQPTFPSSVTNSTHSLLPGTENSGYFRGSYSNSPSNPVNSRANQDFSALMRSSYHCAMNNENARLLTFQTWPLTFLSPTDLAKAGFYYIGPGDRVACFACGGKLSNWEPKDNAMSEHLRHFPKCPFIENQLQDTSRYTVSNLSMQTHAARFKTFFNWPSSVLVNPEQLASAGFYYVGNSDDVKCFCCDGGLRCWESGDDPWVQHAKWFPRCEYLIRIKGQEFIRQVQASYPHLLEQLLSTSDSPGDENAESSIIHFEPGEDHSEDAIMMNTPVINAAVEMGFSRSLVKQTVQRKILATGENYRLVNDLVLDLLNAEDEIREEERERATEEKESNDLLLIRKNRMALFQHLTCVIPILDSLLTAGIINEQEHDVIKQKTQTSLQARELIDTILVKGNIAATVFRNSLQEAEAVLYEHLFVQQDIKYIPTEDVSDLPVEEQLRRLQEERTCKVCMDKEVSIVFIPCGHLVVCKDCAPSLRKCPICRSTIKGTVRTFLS
Protocol: as §3, §4

XIAP = XIAP (Homo sapiens, UniProt P98170); assay: IAP family member degradation assay; format: cell-based; conditions: C4-2 and PC-3 cells, Western blot
Chain of XIAP (P98170 whole entry): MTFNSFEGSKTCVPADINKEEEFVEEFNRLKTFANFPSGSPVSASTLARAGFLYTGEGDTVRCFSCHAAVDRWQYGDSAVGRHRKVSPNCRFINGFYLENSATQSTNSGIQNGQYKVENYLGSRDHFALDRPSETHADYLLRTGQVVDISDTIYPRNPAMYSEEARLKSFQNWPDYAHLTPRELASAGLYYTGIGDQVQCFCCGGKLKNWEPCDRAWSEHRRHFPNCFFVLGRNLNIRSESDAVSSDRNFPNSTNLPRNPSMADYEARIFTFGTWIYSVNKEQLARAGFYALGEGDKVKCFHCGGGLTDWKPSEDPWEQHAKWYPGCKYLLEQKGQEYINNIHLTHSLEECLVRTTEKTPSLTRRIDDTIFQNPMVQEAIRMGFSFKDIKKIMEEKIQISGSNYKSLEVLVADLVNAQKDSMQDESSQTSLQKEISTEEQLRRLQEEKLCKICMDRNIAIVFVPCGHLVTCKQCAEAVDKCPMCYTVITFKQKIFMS
Protocol: as §3, §4

C4-2 cells [3] = assay: Apoptosis assay (Annexin V flow cytometry); format: cell-based, human; conditions: 3 μM
Protocol: (§5) Survivin Cycloheximide Half-Life Assay. The effect of LQZ-7-3 on survivin half-life was performed as previously described. Briefly, PC-3 or C4-2 cells were pretreated with 10 μmol/L cycloheximide for 1 hour followed by incubation with or without LQZ-7-3 10 uM for different times (0-6 hours). The cells were then harvested for Western Blot analysis for survivin. Apoptosis Assay. The apoptosis assay was performed as detailed in the Anenxin V-FITC kit from BioVision. Briefly, apoptosis was induced by treatment with LQZ-7-3 and cells were collected by centrifugation. Cells were resuspended in 500 ul of 1× binding buffer and 5 ul of annexin V-FITC and 5 ul of propidium iodide (50 ug/ml) was added to the cells. The cells were incubated at room temperature for 5 minutes in the dark then subjected to quantification by flow cytometry.

PC-3 cells [4] = assay: Apoptosis assay (Annexin V flow cytometry); format: cell-based, human; conditions: 3 μM
Protocol: as §5

cleaved caspase 3 = assay: Western blot analysis of cleaved caspase 3; format: cell-based, human; conditions: C4-2 and PC-3 cells
Description: To determine if 7I-induced survivin degradation occurs in proteasome, we performed a rescue experiment by pre-treating cells using proteasome inhibitors MG132 and bortezomib for 1 hr prior to 7I treatment. […] Thus, 7I likely induces survivin degradation via proteasome. 7I induces apoptosis. It has been shown previously that depleting survivin or inhibiting survivin using dominant negative forms of survivin cause spontaneous apoptosis in cancer cells (ref) and that the parent compound LQZ-7 also induces apoptosis. We next tested if 7I would induce apoptosis by inhibiting survivin. For this purpose, we first performed Western blot analysis of cleaved caspase 3 in C4-2 and PC-3 cells following 7I treatments. […] We also performed annexin V staining of C4-2 and PC-3 cells as another indicator of apoptosis following 7I treatments. […] 7I inhibits growth of PC-3 xenograft tumors by inhibiting survivin. We next determined if 7I is active in suppressing tumor growth in vivo using a PC-3 xenograft model. […] The xenograft tumors in the 7I-treatment group trended to be smaller and pale in color than the control group (FIG. 16C-D). Thus, 7I may be effective in inhibiting tumor growth with little toxicity.
Apoptosis Studies. To determine if LQZ-7F-1 also induces apoptosis of cancer cells Flow Cytometry with Annexin V staining was performed in coordination with the Flow Cytometry Core. […]

PC-3 xenograft tumors = assay: PC-3 xenograft model; format: in vivo, NSG male mice
Protocol: PC-3 Xenograft Model. For the in vivo efficacy study, 3×10^6 PC-3 cells in media were implanted in to the hind flanks of 6 week old NSG male mice. After the tumor volume reached approximately […] in volume, the mice were randomized in to two groups (5 mice/group). The mice were either given 200 uL vehicle (90% corn oil/10% DMSO) or LQZ-7-3 100 mg/kg vial oral gavage every other day for a total of ten treatments. Before each treatment mouse bodyweight and tumor volume by caliper was measured. At the end of the study mice were sacrificed, and tumors were extracted for western blot analysis and […] staining of survivin.

Solubility in corn oil = format: physicochemical
[5] = test system: stable C4-2 cells over expressing survivin; assay: Methylene blue assay in survivin overexpression cells; format: cell-based; conditions: Homo sapiens; stable C4-2 clone, HA-tagged survivin; read-out: IC50, survivin over-expression
Protocol: as §1
(§6) Survivin overexpression decreases cellular sensitivity to 7I. To corroborate above findings and to further investigate 7I inhibition of cancer cell survival via survivin, we generated a stable C4-2 clone with overexpression of HA-tagged survivin (FIG. 13D) and tested the effect of survivin over-expression on 7I cytotoxicity. […] Thus, 7I likely works via inhibiting survivin.
(§7) LQZ-7F-1 Cytotoxicity in Survivin Overexpression Cells. To determine if survivin overexpressing cells have a decreased sensitivity to LQZ-7F-1, C4-2 survivin stable overexpressing cells were once again used in a cell cytotoxicity assay.

C4-2 vector cells = assay: Methylene blue assay in vector control cells; format: cell-based; conditions: Homo sapiens; C4-2 vector control; read-out: IC50, vector-transfect control clone
Protocol: as §1, §6, §7

[6] = test system: p53-large T antigen dimerization; assay: Mammalian two hybrid assay, specificity control; conditions: same two hybrid assay
Protocol: as §8

survivin [7] = molecular target: T1, survivin (Homo sapiens, UniProt O15392); assay: Survivin level by Western blot in prostate cancer cells; conditions: C4-2 and PC-3 cells
T1 sequence (O15392 whole entry): as the sequence (O15392 whole entry) above
Protocol: IAP family member degradation assay. For this experiment C4-2 or PC-3 cells were plated in a 10 cm dish at 1×10^6 cells per dish. 24 hours later the media was changed and cells were treated with DMO or LQZ-7-3. After 48 hours the cells were harvested, washed in PBS, and IAP family members level were evaluated using specific antibodies and Western Blotting.

survivin [8] = molecular target: T1, survivin; assay: Proteasome inhibitors study (rescue of survivin loss); format: cell-based; set-up: we examined survivin expression level in C4-2 and PC-3 cells following 7I treatments; endogenous in cells; host or cells: PC-3, C4-2; conditions: PC-3 and C4-2 cells
Protocol: Proteasome Inhibitors Study. For the proteasome inhibitor rescue experiment, PC3 and C4-2 cells were seeded in 10-cm dishes at 8×10^5 cells/dish and cultured for 48 hours followed by replacement with fresh media containing DMSO control, 7 μmol/L MG132, or 70 nmol/L bortezomib and incubation for 2 hours. LQZ-7-3 was then added to the culture to final concentrations of 10 uM respectively and incubated for additional 24 hours. The cells were then harvested used for Western blot analysis of survivin.
To determine if 7I-induced survivin degradation occurs in proteasome, we performed a rescue experiment by pre-treating cells using proteasome inhibitors MG132 and bortezomib for 1 hr prior to 7I treatment. […] Thus, 7I likely induces survivin degradation via proteasome. 7I induces apoptosis. It has been shown previously that depleting survivin or inhibiting survivin using dominant negative forms of survivin cause spontaneous apoptosis in cancer cells (ref) and that the parent compound LQZ-7 also induces apoptosis. We next tested if 7I would induce apoptosis by inhibiting survivin. For this purpose, we first performed Western blot analysis of cleaved caspase 3 in C4-2 and PC-3 cells following 7I treatments. […] We next determined if 7I is active in suppressing tumor growth in vivo using a PC-3 xenograft model. […]

[9] = read-out: IC50 against C4-2 cells
[10] = read-out: IC50 against PC-3 cells

Q: For `Cc1cccc(Nc2nc3nonc3nc2N/N=C/c2ccc(-c3ccc(Cl)c([N+](=O)[O-])c3)o2)c1C` [LQZ-7A], which IC50 (PC-3) is on record?
A: 7.2 ± 2.7 µM

Q: Which IC50 (PC-3) does the source give for `Cc1ccc(-c2ccc(/C=N/Nc3nc4nonc4nc3Nc3cccc(Br)c3)o2)cc1Cl` [LQZ-7B] here?
A: 3.3 ± 0.2 µM

Q: Which IC50 (PC-3) does the source give for `CCOC(=O)c1ccc(Nc2nc3nonc3nc2N/N=C/c2c[nH]nc2-c2ccccc2)cc1` [LQZ-7C] here?
A: 3.5 µM

Q: Which IC50 (PC-3) does the source give for `Cc1cccc(Nc2nc3nonc3nc2N/N=C/c2cc3c(cc2[N+](=O)[O-])OCO3)c1C` [LQZ-7D] here?
A: 2.6 ± 0.3 µM

Q: Which IC50 (C4-2 cells [1]; read-out: IC50 (μm) C4-2) does the source give for `O=C(Nc1nc2ccccc2nc1Nc1ccc(F)cc1)c1ccc2c(c1)OCO2` [LQZ-7G, N-(3-((4-fluorophenyl)amino)quinoxalin-2-yl)benzo[d][1,3]dioxole-5-carboxamide] here?
A: 14.3 µM

Q: What about the IC50 (PC-3 cells [2]; read-out: IC50 (μm) PC-3) of the same molecule?
A: 20.7 µM

Q: Which IC50 (C4-2 cells [1]; read-out: IC50 (μm) C4-2) does the source give for `O=C(Nc1nc2ccccc2nc1Nc1ccc(F)cc1)c1ccccc1` [LQZ-7H, N-(3-((4-fluorophenyl)amino)quinoxalin-2-yl)benzamide] here?
A: 12.7 µM

Q: What about the IC50 (PC-3 cells [2]; read-out: IC50 (μm) PC-3) of the same molecule?
A: 19.7 µM

Q: For `Fc1ccc(Nc2nc3ccccc3nc2Nc2ccc(F)cc2)cc1` [LQZ-7I, N^2,N^3-bis(4-fluorophenyl)quinoxaline-2,3-diamine], which IC50 (C4-2 cells [1]; read-out: IC50 (μm) C4-2) is on record?
A: 3.1 µM

Q: What about the IC50 (C4-2 cells [1]; [9]) of the same molecule?
A: 3.1 µM

Q: And the IC50 (PC-3 cells [2]; read-out: IC50 (μm) PC-3)?
A: 4.8 µM

Q: What about the IC50 (PC-3 cells [2]; [10]) of the same molecule?
A: 4.8 µM

Q: What about the “SEAP reporter expression / survivin dimerization” value (survivin dimerization) of the same molecule?
A: significantly decreased; also recorded: significantly inhibited

Q: And the “expression of CIAP1” value (CIAP1)?
A: no effect

Q: What about the “expression of CIAP2” value (CIAP2) of the same molecule?
A: no effect

Q: And the “expression of XIAP” value (XIAP)?
A: no effect

Q: What about the “apoptosis (annexin V staining)” value (C4-2 cells [3]) of the same molecule?
A: ~48%

Q: What about the “apoptosis (annexin V staining)” value (PC-3 cells [4]) of the same molecule?
A: ~39%

Q: And the “cleaved caspase 3 levels” value (cleaved caspase 3)?
A: induced cleavage of caspase 3 in a dose dependent manner

Q: And the body weight (PC-3 xenograft tumors; 100 mg/kg oral gavage)?
A: lacking changes

Q: What about the “wet weight of major organs at the end of the study” value (PC-3 xenograft tumors; 100 mg/kg oral gavage) of the same molecule?
A: lacking changes

Q: What about the tumor growth (PC-3 xenograft tumors; 100 mg/kg oral gavage every other day, ten treatments) of the same molecule?
A: significantly suppressed

Q: What about the “survivin expression in xenograft tumors” value (PC-3 xenograft tumors; Western blot and immunofluorescence staining, treatment vs control group) of the same molecule?
A: drastically reduced

Q: And the “solubility in corn oil” value (Solubility in corn oil)?
A: soluble

Q: What about the IC50 [5] of the same molecule?
A: ~7 µM

Q: And the IC50 (C4-2 vector cells)?
A: ~2000 nM

Q: What about the “p53-large T antigen dimerization” value [6] of the same molecule?
A: no effect

Q: And the “survivin expression level after treatment” value (survivin [7])?
A: reduced; also recorded: time-dependent survivin loss

Q: What about the “compound-induced survivin loss after pretreatment with proteasome inhibitors MG132 and bortezomib” value (survivin [8]) of the same molecule?
A: significantly reversed

Q: What does the source list for `Cc1cccc(Nc2nc3ccccc3nc2Nc2cccc(C)c2C)c1C` [LQZ-7J, N^2,N^3-bis(2,3-dimethylphenyl)quinoxaline-2,3-diamine]?
A: IC50 (C4-2 cells [1]; read-out: IC50 (μm) C4-2): 17.6 µM; IC50 (PC-3 cells [2]; read-out: IC50 (μm) PC-3): 24.8 µM

Q: Which IC50 (C4-2 cells [1]; read-out: IC50 (μm) C4-2) does the source give for `Cc1cccc(Nc2nc3nonc3nc2N/N=C/c2ccc(-c3cccc(C(=O)O)c3)o2)c1C` [LQZ-7] here?
A: 9.1 µM

Q: And the IC50 (C4-2 cells [1]; [9])?
A: 9.1 µM

Q: What about the IC50 (PC-3 cells [2]; read-out: IC50 (μm) PC-3) of the same molecule?
A: 8.1 µM

Q: And the IC50 (PC-3 cells [2]; [10])?
A: 8.1 µM

Q: What about the “p53-large T antigen dimerization” value [6] of the same molecule?
A: no effect
